In patent US20080194552A1, “Aminopyrimidine Derivatives With Tie2 Inhibiting Activity” (ASTRAZENECA AB, priority 2005, published 2008):

Molecular target: T1, Tie2 receptor tyrosine kinase (Homo sapiens, UniProt Q02763)
T1 construct: one can use natural cell lines or primary cells which are known to express the receptor of choice; endogenous in cells; host or cells: EA.hy926/B3 cells (HUVEC named as an alternative)
Test: Cellular Tie2 autophosphorylation assay
Type: cell-based
Details: whole cells, e.g. Ang1 ligand stimulated EA.hy926/B3 cells; read-out: IC50 Inhibition of autophosphorylation of Tie2 receptor tyrosine kinase
Source text: The following assay can be used to measure the effects of the compounds of the present invention as inhibitors of Tie2 autophosphorylation in whole cells.
Cellular Tie2 Autophosphorylation Assay
This assay is based on measuring the ability of compounds to inhibit autophosphorylation of the Tie2 receptor which normally leads to the production of “activated” receptor that in turn initiates the particular signal transduction pathways associated with the receptor function.
Autophosphorylation can be achieved by a number of means. It is known that expression of recombinant kinase domains in baculoviral systems can lead to the production of phosphorylated and activated receptor. […]
Naturally if the ligand is available one can use natural cell lines or primary cells which are known to express the receptor of choice and simply stimulate with ligand to achieve ligand induced phosphorylation. The ability of compounds to inhibit autophosphorylation of the Tie2 receptor, which is expressed for example in EA.hy926/B3 cells (supplied by J. McLean/B. Tuchi, Univ. of N. Carolina at Chapel Hill, CB-4100, 300 Bynum Hall, Chapel Hill, N.C. 27599-41000, USA) or primary HUVEC (human umbilical vein endothelial cells—available from various commercial sources), can measured by this assay. […]

T1 sequence (Q02763 23-1124): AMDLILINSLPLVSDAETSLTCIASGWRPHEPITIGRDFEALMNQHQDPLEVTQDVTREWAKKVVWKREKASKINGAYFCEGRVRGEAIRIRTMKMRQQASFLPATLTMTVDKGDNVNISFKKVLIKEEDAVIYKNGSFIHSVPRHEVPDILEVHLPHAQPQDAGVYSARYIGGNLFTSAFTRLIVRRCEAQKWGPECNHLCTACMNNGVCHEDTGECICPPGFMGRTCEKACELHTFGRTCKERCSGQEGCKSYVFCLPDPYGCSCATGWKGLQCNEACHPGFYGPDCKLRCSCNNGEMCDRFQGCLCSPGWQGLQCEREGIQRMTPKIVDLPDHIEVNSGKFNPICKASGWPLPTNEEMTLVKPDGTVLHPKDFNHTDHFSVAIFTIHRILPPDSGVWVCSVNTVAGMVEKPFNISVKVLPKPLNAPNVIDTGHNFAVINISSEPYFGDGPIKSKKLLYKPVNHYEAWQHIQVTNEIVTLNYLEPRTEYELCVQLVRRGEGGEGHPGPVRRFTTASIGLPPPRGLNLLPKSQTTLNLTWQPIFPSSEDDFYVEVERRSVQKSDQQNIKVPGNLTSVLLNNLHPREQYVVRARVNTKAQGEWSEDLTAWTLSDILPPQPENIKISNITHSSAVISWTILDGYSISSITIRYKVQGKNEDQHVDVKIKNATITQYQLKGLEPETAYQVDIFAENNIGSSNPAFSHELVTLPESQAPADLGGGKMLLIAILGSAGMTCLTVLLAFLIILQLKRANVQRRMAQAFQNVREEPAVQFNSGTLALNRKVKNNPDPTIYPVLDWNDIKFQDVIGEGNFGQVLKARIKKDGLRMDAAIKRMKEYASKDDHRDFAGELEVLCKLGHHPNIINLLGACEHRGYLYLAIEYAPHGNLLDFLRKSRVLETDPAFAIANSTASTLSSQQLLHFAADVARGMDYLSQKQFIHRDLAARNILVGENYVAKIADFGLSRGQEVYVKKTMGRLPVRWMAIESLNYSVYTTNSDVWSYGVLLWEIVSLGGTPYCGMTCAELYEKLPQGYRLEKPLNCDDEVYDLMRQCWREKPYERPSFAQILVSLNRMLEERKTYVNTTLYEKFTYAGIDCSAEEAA

With `Nc1ncc(C#Cc2csc(C(=O)Nc3cc(C(F)(F)F)ccc3F)c2)cn1` [Example 2, 4-[(2-Aminopyrimidin-5-yl)ethynyl]-N-[2-fluoro-5-(trifluoromethyl)phenyl]thiophene-2-carboxamide] the IC50 was 26 nM.
Work on `Nc1ncc(C#Cc2ccc(C(=O)Nc3cc(C(F)(F)F)ccc3F)s2)cn1` [Example 1, 5-[(2-Aminopyrimidin-5-yl)ethynyl]-N-[2-fluoro-5-(trifluoromethyl)phenyl]thiophene-2-carboxamide] yielded an IC50 of 16 nM.
